Tests used:
HepG2 cells = assay: MTT cytotoxicity assay, HepG2; type: cell-based, human; details: Homo sapiens, HepG2, light or radiation study, HepG2, 660 nm irradiation 12 J/cm^2
Source text: To further quantitatively explore the in vitro anticancer potency of QTCy7-R, the methyl thiazolyltetrazolium (MTT) assay was employed to detect cell viability. […] Next, we evaluated the cytotoxicity under dark conditions of this series of compounds at high concentrations (Figure 9e), as due to the characteristics of mitochondrial accumulation, QTCy7-Me and QTCy7-Ph might lead to mitochondrial depolarization and apoptosis at high concentrations. However, its IC50 value could still reach about 60 μM, which was almost […] than those of all cyanine photosensitizers reported. […] The photocytotoxicity index value (dark IC50/light IC50) of QTCy7-Ac was >500, manifesting that QTCy7-Ac is a PS with high efficacy but low cytotoxicity, which is extremely promising in clinical application. […]
Cytotoxicity was tested by the reduction of methyl thiazolyl tetrazolium to formazan by succinic acid dehydrogenase in the mitochondria of living cells (MTT assay). HepG2 cells, MCF7 cells and 4T1 cells were seeded to 96-well microplates (Nunc, Denmark) with a density of 1 × 10^5 cells/mL cells in 100 μL DMEM medium and incubated at 37 °C for 24 h. When the cell density reached about 70%, the QTCy7-R with different concentrations (4, 3, 2, 1.5, 1, 0.75, 0.5, 0.25, 0 μM) in PBS were added to the wells of cells in dark condition, respectively. For light groups, the cell incubation conditions were the same as those of the dark group and the cells were further incubated for 2 h, subsequently, the cells were subjected to 660 nm irradiation (20 mW/cm2) for different time (10 min, 5 min and 2.5 min) corresponding to different light doses (12 J/cm2, 6 J/cm2 and 3 J/cm2). Then all the cells were incubated for 12 h, after which the MTT solution in DMEM (0.5 mg/ml, 100 μL) was added to each well and the cells were incubated at 37 °C for another 4 h. The MTT solution was carefully removed and 100 μL DMSO was added to dissolve formazan, and the absorbance of each well was measured by a multifunctional microplate reader at 570 nm and 630 nm. The cell viability was obtained by the following equation: […]
Where “OD” represent the absorbance at 570 nm and 630 nm, “ps” and “control” represent experimental groups and control groups, respectively. […]

[1] = Singlet oxygen quantum yield by DPBF decay curve method; type: physicochemical; details: in dichloromethane
Method: Afterward, the singlet oxygen yields of the series of molecules were preliminarily measured and analyzed by the 1,3-diphenylisobenzofuran (DPBF) decay curve method (Figures 2d,e and S2). […] Meanwhile, in order to exclude the effect of the rigid structure, ΦΔ of a Cy7-like reference molecule (TCy7C) with a rigidified structure but absence of an oxygen atom was measured. The singlet oxygen yield of TCy7C was 2.2%, even lower than that of TCy7 under the same conditions (Figure S3). […]
Photoexcited singlet oxygen production was detected by employed 1,3-diphenylisobenzofuran (DPBF) as the indicator. The absorbance of DPBF at 415 nm was regulated to about 1.0 in DCM. And the samples were irradiated with 660 nm light for various times, then the absorption spectra of different time nodes were recorded.
The singlet oxygen quantum yield (ΦΔ) was calculated by the following equation:
Where “Φ” represent the singlet oxygen quantum yield , “sam” and “std” represent QTCy7-R and MB, respectively. “m” is the slope of the absorbance of DPBF at 415 nm with time, F=1–10-O.D. (O.D. is the absorbance of samples at 660 nm). […]

[2] = UV-vis absorption, fluorescence emission, absolute fluorescence quantum yield and fluorescence lifetime; type: physicochemical
Method: First, the UV–vis absorption and fluorescence emission spectra of the series of compounds were measured and analyzed. […] Concurrently, the Stokes shifts of all four compounds were more than 60 nm (Figure 2a,b and Table 1), which could effectively improve the signal-to-noise ratio (SNR) of fluorescence compared to the ordinary TCy7. The fluorescence lifetimes of all four compounds were within 2 ns, indicating no delayed fluorescence generation (Figure 2c and Table 1). […]
Materials and Instrumentation
All the general chemicals used in this paper are purchased from Energy Chemical Co. and Innochem Chemical Co. unless otherwise specified. All solvents were […]
analytically pure. […]
All the other solvents and reagents used in this study were of analytical grade. All the BALB/c mice were purchased from Liaoning […]
III 500 spectrometers. Absorption and emission spectra for all the compounds were achieved on the Agilent Technologies CARY 60 UV -Vis spectrophotometer and VAEIAN CARY Eclipse fluorescence spectrop hotometer (Serial No. FL0812 -M018), […]
respectively. Unless otherwise specified, all spectroscopic tests were performed in a quartz cell (10×10 mm). Fluorescence quantum yield of all the compounds were measured on the HAMAMATSU absolute fluorescence quantum yield spectrometer (Serial No. C11347). Triplet lifetime of compounds were acquired on LP980 laser flash photolysis spectrometer (Edinburgh Instruments, U.K.). The cell confocal laser scanning microscope (CLSM) images were all obtained by using Olympus FV3000 confocal laser scanning microscope. […]
Figure 4, Figure S6 and Figure S7). The spin-orbital coupling (SOC) values between the S1/S1V and T2 were calculated with ORCA 4.13. Hole-Electron analysis was carried […]
ISC rate constants calculation […]
Triplet lifetime measurements
The triplet life of QTCy7-R was measured by LP980 laser flash photolysis spectrometer (Edinburgh Instruments Ltd.) in combination with a Nd:YAG laser (Surelite I-10, Continuum Electro-Optics, Inc.). The oxygen in the sample was removed by aerating nitrogen for 30 min. The samples (5 μM) were excited by a 610 nm laser pulse (1 Hz, 100 mJ per pulse, fwhm ≈ 7 ns) at 300 K. The triplet state decay kinetics were measured at the maximum absorption wavelengths of each compound.
Fluorescence lifetime and femtosecond time-resolved transient absorption spectra […]
The fluorescence lifetimes and femtosecond time-resolved transient absorption spectra of dyes were recorded on a freshly prepared samples using the time-correlated single photon counting (TCSPC) method (PicoQuant PicoHarp 300) at 300 K. The concentration is 10 μM, solvent is DCM.
Hepatoma carcinoma cells (HepG-2 cells), human mammary carcinoma (MCF-7) and mouse breast cancer cells (4T1) were maintained in Dulbecco’s modified Eagle’s

| SMILES | IC50 (HepG2 cells) [µM] | ΦΔ, singlet oxygen yield ([1]; DPBF method) [%] | ΦΔ, singlet oxygen quantum yield ([1]; methylene blue as standard, 660 nm irradiation) | ΦF, absolute fluorescence quantum yield [2] [%] | Δλ, Stokes shift ([2]; in dichloromethane) [nm] | λabs, maximum absorption wavelength ([2]; in dichloromethane) [nm] | λem, maximum emission wavelength ([2]; in dichloromethane) [nm] | τS, fluorescence lifetime ([2]; in dichloromethane) [ns] |
| --- | --- | --- | --- | --- | --- | --- | --- | --- |
| C=Cc1c(C)c2cc3nc(c(CC(=O)O)c4[nH]c(cc5nc(cc1[nH]2)C(C)=C5CC)c(C)c4C(=O)O)[C@@H](CCC(=O)O)[C@@H]3C [Ce6, chlorin e6, reference compound] | 3.5 | – | – | – | – | – | – | – |
| CCN1/C(=C/C=C/C=C/C=C/c2sc3ccccc3[n+]2CC)Sc2ccccc21 [TCy7, reference compound] | – | 2.6 | 0.026 | 19.3 | 23 | 770 | 793 | 1.54 |
